Reference: the supplement of paper PMC10307832

Legend:
Test in all cases: relative viability (nuclei count vs DMSO), 5 days (fraction); higher = more cells survive
NCI-H2347 = test system: NCI-H2347
Outline: (§1)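 Five library-drug doses in √10 steps were combined with a fixed anchor-drug dose, or a single drug was given alone, by pin tool to lung cancer cell lines in 1536-well plates the day after seeding. Nuclei were stained and counted after 5 days. Relative viability is the nuclei count in treated wells over that in vehicle wells, taken as the median of duplicate plates.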

NCI-H1915 = test system: NCI-H1915
Outline: as §1

NCI-H1993 = test system: NCI-H1993
Outline: as §1

NCI-H1651 = test system: NCI-H1651
Outline: as §1

COR-L23 = test system: COR-L23
Outline: as §1

PC-14 = test system: PC-14
Outline: as §1

EPLC-272H = test system: EPLC-272H
Outline: as §1

LU99A = test system: LU99A
Outline: as §1

NCI-H2023 = test system: NCI-H2023
Outline: as §1

NCI-H838 = test system: NCI-H838
Outline: as §1

NCI-H1355 = test system: NCI-H1355
Outline: as §1

HCC-78 = test system: HCC-78
Outline: as §1

HCC-15 = test system: HCC-15
Outline: as §1

ABC-1 = test system: ABC-1
Outline: as §1

UMC-11 = test system: UMC-11
Outline: as §1

HARA = test system: HARA
Outline: as §1

NCI-H2085 = test system: NCI-H2085
Outline: as §1

NCI-H650 = test system: NCI-H650
Outline: as §1

NCI-H2126 = test system: NCI-H2126
Outline: as §1

LC-2-ad = test system: LC-2-ad
Outline: as §1

SW 1573 = test system: SW 1573
Outline: as §1

NCI-H358 = test system: NCI-H358
Outline: as §1

NCI-H2342 = test system: NCI-H2342
Outline: as §1

O=C(O)c1ccc(-c2c[nH]c3ncc(-c4ccccc4)cc23)cc1C1CCCC1 + Cc1cc(Nc2cc(N3CCN(C)CC3)nc(Sc3ccc(NC(=O)C4CC4)cc3)n2)n[nH]1 [Tozasertib] (partner 0.1 µM)
relative viability (NCI-H2347; first compound 0.04 µM): 0.606 | relative viability (NCI-H2347; first compound 0.1265 µM): 0.643 | relative viability (NCI-H2347; first compound 0.4 µM): 0.522 | relative viability (NCI-H2347; first compound 1.265 µM): 0.5 | relative viability (NCI-H1915; first compound 0.04 µM): 0.445 | relative viability (NCI-H1915; first compound 0.1265 µM): 0.427 | relative viability (NCI-H1915; first compound 0.4 µM): 0.364 | relative viability (NCI-H1915; first compound 1.265 µM): 0.275 | relative viability (NCI-H1993; first compound 0.04 µM): 0.556 | relative viability (NCI-H1993; first compound 0.1265 µM): 0.604 | relative viability (NCI-H1993; first compound 0.4 µM): 0.55 | relative viability (NCI-H1993; first compound 1.265 µM): 0.606 | relative viability (NCI-H1651; first compound 0.04 µM): 0.689 | relative viability (NCI-H1651; first compound 0.1265 µM): 0.708 | relative viability (NCI-H1651; first compound 0.4 µM): 0.559 | relative viability (NCI-H1651; first compound 1.265 µM): 0.481 | relative viability (COR-L23; first compound 0.04 µM): 0.208 | relative viability (COR-L23; first compound 0.1265 µM): 0.177 | relative viability (COR-L23; first compound 0.4 µM): 0.166 | relative viability (COR-L23; first compound 1.265 µM): 0.119 | relative viability (PC-14; first compound 0.04 µM): 0.599 | relative viability (PC-14; first compound 0.1265 µM): 0.638 | relative viability (PC-14; first compound 0.4 µM): 0.484 | relative viability (PC-14; first compound 1.265 µM): 0.508 | relative viability (EPLC-272H; first compound 0.04 µM): 0.295 | relative viability (EPLC-272H; first compound 0.1265 µM): 0.313 | relative viability (EPLC-272H; first compound 0.4 µM): 0.274 | relative viability (EPLC-272H; first compound 1.265 µM): 0.0995 | relative viability (LU99A; first compound 0.04 µM): 0.268 | relative viability (LU99A; first compound 0.1265 µM): 0.253 | relative viability (LU99A; first compound 0.4 µM): 0.281 | relative viability (LU99A; first compound 1.265 µM): 0.257 | relative viability (NCI-H2023; first compound 0.04 µM): 0.374 | relative viability (NCI-H2023; first compound 0.1265 µM): 0.39 | relative viability (NCI-H2023; first compound 0.4 µM): 0.318 | relative viability (NCI-H2023; first compound 1.265 µM): 0.242 | relative viability (NCI-H838; first compound 0.04 µM): 0.291 | relative viability (NCI-H838; first compound 0.1265 µM): 0.274 | relative viability (NCI-H838; first compound 0.4 µM): 0.232 | relative viability (NCI-H838; first compound 1.265 µM): 0.229 | relative viability (NCI-H1355; first compound 0.04 µM): 0.56 | relative viability (NCI-H1355; first compound 0.1265 µM): 0.632 | relative viability (NCI-H1355; first compound 0.4 µM): 0.522 | relative viability (NCI-H1355; first compound 1.265 µM): 0.281 | relative viability (HCC-78; first compound 0.1265 µM): 0.468 | relative viability (HCC-78; first compound 0.4 µM): 0.405 | relative viability (HCC-78; first compound 1.265 µM): 0.345 | relative viability (HCC-15; first compound 0.04 µM): 0.403 | relative viability (HCC-15; first compound 0.1265 µM): 0.502 | relative viability (HCC-15; first compound 0.4 µM): 0.307 | relative viability (HCC-15; first compound 1.265 µM): 0.151 | relative viability (ABC-1; first compound 0.04 µM): 0.2 | relative viability (ABC-1; first compound 0.1265 µM): 0.192 | relative viability (ABC-1; first compound 0.4 µM): 0.147 | relative viability (ABC-1; first compound 1.265 µM): 0.18 | relative viability (UMC-11; first compound 0.04 µM): 0.189 | relative viability (UMC-11; first compound 0.1265 µM): 0.197 | relative viability (UMC-11; first compound 0.4 µM): 0.199 | relative viability (UMC-11; first compound 1.265 µM): 0.191 | relative viability (HARA; first compound 0.04 µM): 0.104 | relative viability (HARA; first compound 0.1265 µM): 0.0989 | relative viability (HARA; first compound 0.4 µM): 0.197 | relative viability (HARA; first compound 1.265 µM): 0.0904 | relative viability (NCI-H2085; first compound 0.04 µM): 0.772 | relative viability (NCI-H2085; first compound 0.1265 µM): 0.829 | relative viability (NCI-H2085; first compound 0.4 µM): 0.598 | relative viability (NCI-H2085; first compound 1.265 µM): 0.52 | relative viability (NCI-H650; first compound 0.04 µM): 0.706 | relative viability (NCI-H650; first compound 0.1265 µM): 0.691 | relative viability (NCI-H650; first compound 0.4 µM): 0.641 | relative viability (NCI-H650; first compound 1.265 µM): 0.351 | relative viability (NCI-H2126; first compound 0.04 µM): 0.84 | relative viability (NCI-H2126; first compound 0.1265 µM): 0.833 | relative viability (NCI-H2126; first compound 0.4 µM): 0.868 | relative viability (NCI-H2126; first compound 1.265 µM): 0.644 | relative viability (LC-2-ad; first compound 0.04 µM): 0.482 | relative viability (LC-2-ad; first compound 0.1265 µM): 0.407 | relative viability (LC-2-ad; first compound 0.4 µM): 0.399 | relative viability (LC-2-ad; first compound 1.265 µM): 0.402 | relative viability (SW 1573; first compound 0.04 µM): 0.183 | relative viability (SW 1573; first compound 0.1265 µM): 0.194 | relative viability (SW 1573; first compound 0.4 µM): 0.211 | relative viability (SW 1573; first compound 1.265 µM): 0.148 | relative viability (NCI-H358; first compound 0.04 µM): 0.0826 | relative viability (NCI-H358; first compound 0.1265 µM): 0.107 | relative viability (NCI-H358; first compound 0.4 µM): 0.0884 | relative viability (NCI-H358; first compound 1.265 µM): 0.0978 | relative viability (NCI-H2342; first compound 0.04 µM): 0.588 | relative viability (NCI-H2342; first compound 0.1265 µM): 0.422 | relative viability (NCI-H2342; first compound 0.4 µM): 0.445 | relative viability (NCI-H2342; first compound 1.265 µM): 0.521
